In brackets after ≈: the same amount, converted by molar mass. Structures can show the parent of a compound that is named as a salt.
Tests used:
[1] = target: T1, Human immunodeficiency virus type 1 integrase (Human immunodeficiency virus 1, UniProt Q7ZJM1); experiment: Inhibition of HIV-1 integrase
[2] = system: Human immunodeficiency virus 1; experiment: Antiviral activity against wild type HIV1 3B infected in human C8166 cells assessed as cytopathic effect by counting the number of syncytia; assay type: functional, organism-based; conditions: Human immunodeficiency virus 1, 3B
[3] = Therapeutic index, ratio of CC50 for human C8166 cells to EC50 for HIV-1 3B; assay type: cell-based; conditions: read-out: Ratio CC50/EC50
[4] = Inhibition of HIV-1 integrase LEDGF/p75 (unknown origin) interaction; set-up: species or system Human immunodeficiency virus 1
[5] = system: Human immunodeficiency virus 1; experiment: Antiviral activity against wild type HIV1 3B infected in human MT-2 cells assessed as protection of infected cells by MTT colorimetric method; assay type: functional, organism-based; conditions: Human immunodeficiency virus 1, 3B, MT2
[6] = system: Human immunodeficiency virus 1; experiment: Antiviral activity against HIV-1 3B infected in human TZM-bl cells; assay type: functional, organism-based; conditions: Human immunodeficiency virus 1, 3B
[7] = Cytotoxicity against human TZM-bl cells; assay type: cell-based
[8] = Selectivity index, ratio of CC50 for human TZM-bl cells to EC50 for HIV-1 3B; assay type: toxicity, cell-based; conditions: read-out: Ratio CC50/EC50
[9] = target: T1, Human immunodeficiency virus type 1 integrase; experiment: Inhibition of HIV-1 integrase strand transfer activity
[10] = system: Human immunodeficiency virus 1; experiment: Antiviral activity against HIV1; assay type: functional, organism-based
[11] = system: Human alphaherpesvirus 1; experiment: Antiviral activity against Herpes simplex virus type 1; assay type: functional, organism-based
[12] = system: Human alphaherpesvirus 2; experiment: Antiviral activity against Herpes simplex virus type 2; assay type: functional, organism-based
[13] = system: Human immunodeficiency virus 1; experiment: Antiviral activity against HIV1 infected in human peripheral blood leukocyte cells assessed as inhibition of replication; assay type: functional, organism-based
[14] = Cytotoxicity against human peripheral blood leukocyte cells at 100 uM; assay type: cell-based
[15] = read-out: ID50 (the source's name)

T1 sequence (Q7ZJM1 whole entry): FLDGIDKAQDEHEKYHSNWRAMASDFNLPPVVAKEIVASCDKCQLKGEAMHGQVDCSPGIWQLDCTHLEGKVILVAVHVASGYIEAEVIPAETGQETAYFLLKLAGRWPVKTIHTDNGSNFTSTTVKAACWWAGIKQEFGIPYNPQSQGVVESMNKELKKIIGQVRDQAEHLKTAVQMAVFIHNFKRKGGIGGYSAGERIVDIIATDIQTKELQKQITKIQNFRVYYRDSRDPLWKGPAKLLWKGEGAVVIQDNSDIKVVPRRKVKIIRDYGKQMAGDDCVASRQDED

Cc1cc(C)cc(Cn2cc(C(=O)/C=C(\O)C(=O)O)c3c(O)cccc32)c1 gave an IC50 [1] of 3500 nM.

For O=[N+]([O-])c1ccccc1-n1ccc2ccccc21, the EC50 [2] was 7.88 µg/mL (≈ 33.1 µM) and the selectivity ratio [3] was 24.6.

COc1cccc2c1c(C(=O)/C=C(\O)C(=O)O)cn2Cc1ccc(F)cc1 showed an IC50 [4] of 36000 nM.

Compound O=c1ccn(CCOc2ccccc2Oc2cccc3[nH]ccc23)c(=O)[nH]1 has an EC50 [5] of 85 nM.

CCOC(=O)C(O)(c1c[nH]c2ccc([N+](=O)[O-])cc12)C(F)(F)F (stereo not given) gave an EC50 [6] of 19 nM, a CC50 [7] of 211000 nM and a selectivity ratio [8] of 11.1.

O=[N+]([O-])c1ccc2c(ccn2-c2ccccc2[N+](=O)[O-])c1 showed an EC50 [2] of 7.88 µg/mL (≈ 27.8 µM) and a selectivity ratio [3] of 24.6.

With Cc1cn(-c2ccc([N+](=O)[O-])cc2)c2ccccc12 the EC50 [2] was 7.88 µg/mL (≈ 31.2 µM) and the selectivity ratio [3] was 24.6.

COc1cccc2c1c(C(=O)/C=C(\O)C(=O)O)cn2Cc1cc(C)cc(C)c1 gave an IC50 [9] of 5490 nM and an EC50 [10] of 4630 nM.

CC(C)CC(=O)[C@@H](O)Cc1c[nH]c2ccccc12 gave an IC50 [11, 15] of 1.5 µg/mL (≈ 6.11 µM) and an IC50 [12, 15] of 1.5 µg/mL.

For C[C@H]1c2nc(N)[nH]c2[C@]2(O)C[C@H]1c1c(-c3cnc(-c4c[nH]c5cc(Br)ccc45)c(=O)[nH]3)c[nH]c1C2=O, the EC50 [11] was 95800 nM and the EC50 [10] was 910 nM.

Work on O=C(/C=C/c1c[nH]c2c(O)cccc12)N/C=C/c1c[nH]c2ccccc12 yielded an IC50 ([12]; read-out: IC50) of 1000 nM.

Compound COc1ccc2c(c1)N=CN1CCc3c([nH]c4ccccc34)C3=NCC[C@@]321 has an EC50 [10] of 20 nM.

Compound COc1ccc2c3c([nH]c2c1)C1=NCC[C@]12c1ccccc1N=CN2CC3 has an EC50 [10] of 950 nM.

In the case of CCNc1cccnc1N1CCN(C(=O)c2cc3cc(OC)ccc3[nH]2)CC1 [ATEVIRDINE MESYLATE], the IC50 [13] is reported as 1 nM and the Activity [14] is reported as 50%.

O=C(/C=C/c1c[nH]c2ccccc12)N/C=C/c1c[nH]c2ccccc12 [CHONDRIAMIDE A] gave an IC50 ([12]; read-out: IC50) of 1000 nM.

O=C(/C=C/c1c[nH]c2ccccc12)N/C=C\c1c[nH]c2ccccc12 [CHONDRIAMIDE C] gave an IC50 ([12]; read-out: IC50) of 1000 nM.

— ChEMBL document CHEMBL3352429, “A review on recent developments of indole-containing antiviral agents” (Eur J Med Chem, 2015)
